In publication PMC6251916, “CKD-506, a novel HDAC6-selective inhibitor, improves renal outcomes and survival in a mouse model of systemic lupus erythematosus” (Scientific Reports, 2018):

Tests used:
HDAC7 = molecular target: T1, HDAC7 (Homo sapiens, UniProt Q8WUI4); test: HDAC panel assay (enzyme activity); format: biochemical
T1 construct: purchased Reaction biology Corp. (Malvern, PA, USA)
T1 sequence (Q8WUI4 1-952): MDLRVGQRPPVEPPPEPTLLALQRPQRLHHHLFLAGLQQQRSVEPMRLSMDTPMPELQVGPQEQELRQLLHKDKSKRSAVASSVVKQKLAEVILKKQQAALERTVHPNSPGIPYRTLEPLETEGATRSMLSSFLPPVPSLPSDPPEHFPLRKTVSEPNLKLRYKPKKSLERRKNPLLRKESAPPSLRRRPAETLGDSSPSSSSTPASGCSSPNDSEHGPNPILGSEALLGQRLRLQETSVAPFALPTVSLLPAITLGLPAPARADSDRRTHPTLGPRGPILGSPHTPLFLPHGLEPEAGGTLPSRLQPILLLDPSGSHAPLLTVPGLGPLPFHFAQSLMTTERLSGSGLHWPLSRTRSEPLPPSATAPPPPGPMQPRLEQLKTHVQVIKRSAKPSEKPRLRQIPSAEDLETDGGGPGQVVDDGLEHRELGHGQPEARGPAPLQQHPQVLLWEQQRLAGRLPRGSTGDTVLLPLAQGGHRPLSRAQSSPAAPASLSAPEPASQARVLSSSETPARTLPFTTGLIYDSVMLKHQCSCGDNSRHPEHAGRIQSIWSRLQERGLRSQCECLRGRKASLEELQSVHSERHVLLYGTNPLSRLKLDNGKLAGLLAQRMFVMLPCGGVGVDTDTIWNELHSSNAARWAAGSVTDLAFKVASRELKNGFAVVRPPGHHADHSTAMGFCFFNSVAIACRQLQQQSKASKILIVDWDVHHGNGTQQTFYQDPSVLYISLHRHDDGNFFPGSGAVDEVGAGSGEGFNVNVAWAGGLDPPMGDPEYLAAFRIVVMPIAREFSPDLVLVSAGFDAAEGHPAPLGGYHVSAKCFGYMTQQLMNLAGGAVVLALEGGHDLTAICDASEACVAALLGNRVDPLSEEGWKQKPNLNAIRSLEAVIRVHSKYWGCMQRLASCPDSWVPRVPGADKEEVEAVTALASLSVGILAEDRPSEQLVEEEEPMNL
Method: HDAC panel assay was performed by Reaction biology Corp. (Malvern, PA, USA) according to their validated protocol. To evaluate the potency and selectivity of CKD-506, HDAC panel assay was carried out by Reaction biology Corp. Briefly, the deacetylation reaction was performed in 50 mM Tris-HCl pH 8.0, 137 mM NaCl, 2.7 mM KCl, 1 mM MgCl2, and 1 mg/ml bovine serum albumin (BSA) with RHK-K(Ac)-AMC as substrate. After the reaction, a fluorescence signal (Ex. 360 nm/Em. 460 nm) developed (~30 min.) by addition of an equal volume of 2 mM nicotinamide, 16 mg/mL trypsin in 50 mM Tris-HCl pH 8.0, 137 mM NaCl, 2.7 mM KCl, and 1 mM MgCl2.

NZB/W F1 female mice [1] = test: Murine SLE model: BUN and anti-dsDNA antibody levels; format: in vivo, mouse
Method: Survival had been monitored until 42 weeks of age.
Blood samples had been collected from mice under isoflurane anesthesia every 4 weeks (at 24, 28, 32, 36, 40 weeks of age and autopsy), and the obtained serum samples had been kept at −70 °C until the analysis.

NZB/W F1 female mice [2] = test: Murine SLE model: cytokine levels in kidney extracts; format: in vivo, mouse; settings: at autopsy, mean ± SD
Method: The kidneys were weighed and then transferred into dPBS (Welgene) supplemented with anti-protease Complete TM cocktail (Boehringer) using 12.5 μl of dPBS per milligram of wet weight tissue. Samples were homogenized twice using an Automill TK-AM5 freeze-crushing cell homogenizer (W 280 mm × D 390 mm × H 290 mm, Tokken Inc., Chiba, Japan) at 1,400 rpm for 90 seconds and then centrifuged at 16,000 × g for 15 min at 4 °C. The supernatants were collected and total protein concentrations were determined in the kidney extracts using a bicinchoninic acid (BCA) protein assay kit™ (Pierce). Total protein concentrations of the kidney extracts were adjusted to 2 mg/dl and used for the analysis of IFN-γ, IL-10, IL-15, IL-17, IL-1β, IL-4, IL-6, IP-10, MCP-1, CCL4, RANTES, TNF-α and sCD40L with Milliplex® MAP Kits (Millipore).

[3] = group D: CKD-506 10 mg/kg/day, n = 10
[4] = group E: CKD-506 30 mg/kg/day, n = 14

For CKD-506, the IC50 (HDAC7) was 2 to 5 µM, the “Levels of BUN vs vehicle” value (NZB/W F1 female mice [1]; group CKD30, 40 weeks of age) was “significantly lower” and the “Levels of BUN vs vehicle” value (NZB/W F1 female mice [1]; group CKD30, at autopsy) was “significantly lower”. The “Levels of BUN vs vehicle” value (NZB/W F1 female mice [1]; group CKD50, 36 weeks of age) was “significantly lower”, the “Levels of BUN vs vehicle” value (NZB/W F1 female mice [1]; group CKD50, 40 weeks of age) was “significantly lower” and the “Levels of BUN vs vehicle” value (NZB/W F1 female mice [1]; group CKD50, at autopsy) was “significantly lower”. For the same substance, the “Kidney extract CCL2” value (NZB/W F1 female mice [2]; [3]) was 61.30 ± 70.39 pg/mL, the “Kidney extract CCL4” value (NZB/W F1 female mice [2]; [3]) was 12.77 ± 23.90 pg/mL and the “Kidney extract IFN-γ” value (NZB/W F1 female mice [2]; [3]) was 17.46 ± 15.04 pg/mL. For the same substance, the “Kidney extract IL-1β” value (NZB/W F1 female mice [2]; [3]) was 2.09 ± 2.68 pg/mL, the “Kidney extract IL-4” value (NZB/W F1 female mice [2]; [3]) was 0.01 ± 0.02 pg/mL and the “Kidney extract IL-6” value (NZB/W F1 female mice [2]; [3]) was 3.99 ± 2.72 pg/mL. The “Kidney extract IL-10” value (NZB/W F1 female mice [2]; [3]) was 9.43 ± 4.36 pg/mL, the “Kidney extract IL-15” value (NZB/W F1 female mice [2]; [3]) was 34.25 ± 21.24 pg/mL and the “Kidney extract IP-10” value (NZB/W F1 female mice [2]; [3]) was 98.47 ± 44.61 pg/mL. For the same substance, the “Kidney extract RANTES” value (NZB/W F1 female mice [2]; [3]) was 31.17 ± 24.93 pg/mL, the “Kidney extract TNF-α” value (NZB/W F1 female mice [2]; [3]) was “Not detected” and the “Kidney extract CCL2” value (NZB/W F1 female mice [2]; [4]) was 21.90 ± 17.10 pg/mL. For the same substance, the “Kidney extract CCL4” value (NZB/W F1 female mice [2]; [4]) was 1.70 ± 4.61 pg/mL, the “Kidney extract IFN-γ” value (NZB/W F1 female mice [2]; [4]) was 13.12 ± 4.85 pg/mL and the “Kidney extract IL-1β” value (NZB/W F1 female mice [2]; [4]) was 1.18 ± 2.19 pg/mL. For the same substance, the “Kidney extract IL-4” value (NZB/W F1 female mice [2]; [4]) was 0.02 ± 0.05 pg/mL, the “Kidney extract IL-6” value (NZB/W F1 female mice [2]; [4]) was 1.65 ± 0.82 pg/mL and the “Kidney extract IL-10” value (NZB/W F1 female mice [2]; [4]) was 9.62 ± 2.42 pg/mL. The “Kidney extract IL-15” value (NZB/W F1 female mice [2]; [4]) was 42.42 ± 16.89 pg/mL, the “Kidney extract IP-10” value (NZB/W F1 female mice [2]; [4]) was 63.40 ± 21.06 pg/mL and the “Kidney extract RANTES” value (NZB/W F1 female mice [2]; [4]) was 9.30 ± 7.86 pg/mL. The “Kidney extract TNF-α” value (NZB/W F1 female mice [2]; [4]) was “Not detected”, the “Kidney extract CCL2” value (NZB/W F1 female mice [2]; group F: 50 mg/kg/day, n = 14) was 3.15 ± 6.10 pg/mL and the “Kidney extract CCL4” value (NZB/W F1 female mice [2]; group F: 50 mg/kg/day, n = 14) was “Not detected*”. For the same substance, the “Kidney extract IFN-γ” value (NZB/W F1 female mice [2]; group F: 50 mg/kg/day, n = 14) was 6.77 ± 4.06 pg/mL, the “Kidney extract IL-1β” value (NZB/W F1 female mice [2]; group F: 50 mg/kg/day, n = 14) was 0.26 ± 0.60 pg/mL and the “Kidney extract IL-4” value (NZB/W F1 female mice [2]; group F: 50 mg/kg/day, n = 14) was “Not detected*”. For the same substance, the “Kidney extract IL-6” value (NZB/W F1 female mice [2]; group F: 50 mg/kg/day, n = 14) was 0.43 ± 0.45 pg/mL, the “Kidney extract IL-10” value (NZB/W F1 female mice [2]; group F: 50 mg/kg/day, n = 14) was 7.60 ± 2.08 pg/mL and the “Kidney extract IL-15” value (NZB/W F1 female mice [2]; group F: 50 mg/kg/day, n = 14) was 32.82 ± 11.63 pg/mL. For the same substance, the “Kidney extract IP-10” value (NZB/W F1 female mice [2]; group F: 50 mg/kg/day, n = 14) was 43.90 ± 14.50 pg/mL, the “Kidney extract RANTES” value (NZB/W F1 female mice [2]; group F: 50 mg/kg/day, n = 14) was 3.80 ± 2.17 pg/mL and the “Kidney extract TNF-α” value (NZB/W F1 female mice [2]; group F: 50 mg/kg/day, n = 14) was “Not detected”.
